Among the data in paper PMC6478909 (Scientific Reports, 2019) are Kd values, retold here.

Where two headings read alike, the source gives them in different places.

Test [1] deals with T1, precorrin-4 C(11)-methyltransferase (CobM), Cp-CobM (Corynebacterium pseudotuberculosis, UniProt D9QAC4). The test is described as follows: biochemical. The test is classed as binding.
Test [2] deals with T1, precorrin-4 C(11)-methyltransferase (CobM), Cp-CobM. Briefly: biochemical. The test is classed as binding. This is another data set of the same source.

T1 sequence (D9QAC4 1-257): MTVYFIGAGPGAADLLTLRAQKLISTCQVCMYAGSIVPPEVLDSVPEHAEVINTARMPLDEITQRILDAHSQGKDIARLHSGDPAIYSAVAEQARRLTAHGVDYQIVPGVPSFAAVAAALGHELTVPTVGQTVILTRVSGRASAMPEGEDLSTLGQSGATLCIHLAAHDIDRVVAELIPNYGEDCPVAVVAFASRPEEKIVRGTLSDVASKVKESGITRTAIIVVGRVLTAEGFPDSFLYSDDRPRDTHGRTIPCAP

As to `Nc1ncnc2nc[nH]c12` [adenine], the affinity in test [1], expressed as Kd, was 17.8 ± 1.5 µM. Turning to `Nc1ncnc2c1ncn2[C@H]1C[C@H](O)[C@@H](COP(=O)(O)OP(=O)(O)OP(=O)(O)O)O1` [dATP], the dissociation constant Kd (as a rule, the constant that tells how readily two partners part at equilibrium) in test [1] was determined as 15.8 ± 2 µM.

For `C[S+](CC[C@H](N)C(=O)[O-])C[C@H]1O[C@@H](n2cnc3c(N)ncnc32)[C@H](O)[C@@H]1O` (stereo partly shown) [SAM], in test [2], the Kd worked out at 1.4 ± 0.7 µM. Still for that read-out and setting: under `Cc1ccc(C(=O)Nc2ccc(S(=O)(=O)O)c3cc(S(=O)(=O)O)cc(S(=O)(=O)O)c23)cc1NC(=O)c1cccc(NC(=O)Nc2cccc(C(=O)Nc3cc(C(=O)Nc4ccc(S(=O)(=O)O)c5cc(S(=O)(=O)O)cc(S(=O)(=O)O)c45)ccc3C)c2)c1` [suramin] stands 6.3 ± 1.1 µM.
